Laboratory results: patent US5919897A (priority 1995, dated 1999)
Where no end group is shown, it is not given here. [ ]: non-standard residue; d: D form.

What was measured:
μ receptor = molecular target: T1, μ receptor (Homo sapiens, UniProt P35372); assay: Adenylyl cyclase assay using human SH-SY5Y neuroblastoma cell line membranes; assay type: biochemical
T1 construct: An adenylyl cyclase assay using human SH-SY5Y neuroblastoma cell line membranes; endogenous in cells; host or cells: human SH-SY5Y neuroblastoma cells, differentiated with retinoic acid; membranes
Description: An adenylyl cyclase assay using human SH-SY5Y neuroblastoma cell line membranes was used to rapidly determine the opioid agonists or antagonist properties of individual peptides.
After the initial centrifugation at 200×g for 15 min at 4° C., the cells were resuspended in sucrose buffer (0.32M sucrose, 40 mM HEPES, 2 mM EDTA, pH 7.6). Cells were centrifuged again at 200×g, then homogenized in sucrose buffer with five strokes of a Dounce Homogenizer (Wheaton Instruments, Millville, N.J.). Membranes were centrifuged at 22000×g for 20 min at 4° C., then resuspended in sucrose buffer. […] SH-SY5Y membranes at a protein concentration of 1-4 mg/ml were stored at -80° C.
SH-SY5Y membranes were incubated in a final volume of 100 μl of 40 mM HEPES, pH 7.7, containing 15 units of creatine phosphokinase, 20 mM phosphocreatine, 1 mM 1,10-o-phenanthroline, 60 μM isobutylmethylxanthine (IBMX), 50 μM ATP, 50 μM GTP, 3 mM MgCl2 and 100 mM NaCl. Each of the agonists and antagonists tested were included at final concentrations of 100 μM and 500 μM, respectively. The reaction was initiated by the addition of 36 μg of membrane protein. After 15 min at 30° C., the reaction was stopped by the addition of 100μl of cold 4.5% perchloric acid. The samples were neutralized by the addition 40 μl of cold 30% potassium bicarbonate. Finally, the membranes were centrifuged at 12000×g for 4 min at 4° C. in a microcentrifuge; The amount of cyclic AMP present in 100μl of the supernatant, equivalent to the cyclic AMP produced by 15 μg of membrane protein, was determined using a cyclic AMP kit (Diagnostic Products, Los Angeles, Calif.). […] [^3 H]-cyclic AMP, 0.9 μCi, was added into 6 ml of H2 O, and 100 μl of the diluted [^3 H]-cyclic AMP was added to the assay tubes. The final supernatants were counted in 10 ml of Ecolite (+) scintillation fluid (ICN Pharmaceuticals, Covina, Calif.).

MU RECEPTOR = assay: Mu receptor agonist or antagonist activity, by either the adenylyl cyclase assay or the GPI assay (Table 13)

T1 sequence (P35372 whole entry): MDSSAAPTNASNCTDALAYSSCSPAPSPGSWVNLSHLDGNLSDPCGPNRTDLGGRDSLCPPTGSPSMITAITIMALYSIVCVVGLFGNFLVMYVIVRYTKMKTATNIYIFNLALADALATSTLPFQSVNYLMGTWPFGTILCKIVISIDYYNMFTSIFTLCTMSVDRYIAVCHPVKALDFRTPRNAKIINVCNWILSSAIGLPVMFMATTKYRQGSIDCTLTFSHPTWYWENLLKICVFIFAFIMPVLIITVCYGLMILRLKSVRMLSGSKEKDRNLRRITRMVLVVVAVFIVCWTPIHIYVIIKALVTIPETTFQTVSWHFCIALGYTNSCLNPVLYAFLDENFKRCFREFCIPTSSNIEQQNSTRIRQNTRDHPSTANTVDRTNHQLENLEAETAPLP

Row | Compound | % Basal Control (cyclic AMP) (μ receptor; DAMGO 1 μM alone, ANTAGONISTS section) [%] | % Basal Control +ICI 174,864 (μ receptor; DAMGO 1 μM, ANTAGONISTS section) [%] | % Basal Control +ICI 174,864 (μ receptor; agonist 100 μM plus ICI 174,864 (antagonists 500 μM)) [%] | % Basal Control +Naloxone (μ receptor; agonist 100 μM plus naloxone (antagonists 500 μM)) [%] | % Basal Control (cyclic AMP) (μ receptor; agonist alone, 100 μM, SH-SY5Y membranes) [%] | AGONIST OR ANTAGONIST (MU RECEPTOR)
1 | C[C@@H](NC(=O)[C@@H](N)Cc1ccc(O)cc1)C(=O)NCC(=O)N(C)[C@@H](Cc1ccccc1)C(=O)NCCO [DAMGO, [D-Ala^2,MePhe^4, Gly-ol^5]enkephalin] | 61 ± 5 | 95 ± 3 | 28 ± 3 | 77 ± 8 | 34 ± 6 | –
2 | [dI][dM][dT][dW]G[dP]-NH2 [SEQ ID NO. 130] | – | – | – | – | – | Agonist
